Data reported in patent publication US7307166B1, “Oxpurine nucleosides and their congeners, and acyl, derivatives thereof, for improvement of hematopoiesis” (Wellstat Therapeutics Corporation, priority 1987, dated 2007).

Experiments:
[1] = tested on: rabbits treated with cyclophosphamide; conditions: rabbit, in vivo; cited from earlier work
[2] = tested on: mouse bone marrow cells in culture; conditions: under stimulatory influence of serum from endotoxin-treated mice; cited from earlier work
[3] = tested on: human myeloid leukemia cell line (HL-60); conditions: incubation of HL-60 cells; cited from earlier work
Balb/C female mice [4] = experiment: Hematopoietic recovery after cyclophosphamide in mice (spleen weight, blood cell counts); assay type: in vivo, mouse; conditions: for Neutrophils / peripheral total white blood cells: Ex 37: day 7 after CP, 5 μmoles/mouse/day i.p. 6 days
Procedure: Twenty-four hours later and each day thereafter for a total of 6 days, mice were given a 0.4 ml i.p. injection of either physiological saline (controls), guanine (5 μmoles/mouse/day), or guanosine (5 μmoles/mouse/day). On day 7 all 10 mice in each of the three groups were bled, and then sacrificed by cervical dislocation. Spleens were removed and weighed, and complete blood cell counts performed.
Twenty-four hours later and each day thereafter for a total of 6 days, mice were given a 0.4 ml i.p injection of either physiological saline (controls), Tween 80 (0.2%), guanosine (5 μmoles/mouse/day in 0.2% Tween 80), or 2.5 μmoles per mouse per day of one of the following acylated derivatives of guanosine in 0.2% Tween 80: triacetylguanosine, octanoylguanosine, lauroylguanosine, or palmitoylguanosine. On day 7 following CP administration all 10 animals from each of the 7 groups were bled, and then sacrificed by cervical dislocation. Spleens were removed and weighed, and complete blood counts performed.
Twenty-four hours later treatment was begun. Mice were given a 0.4 ml i.p. injection of either physiological saline (controls), Tween 80 (0.2%), or palmitoylguanosine (5 μmoles/mouse/day in 0.2% Tween 80). The timing of the treatments was varied within the groups. The control group was given saline on days 1-6. The mice receiving Tween 80 were treated either on days 1-4, 4-6 or 1-6. Palmitoylguanosine-treated mice were treated either on days 1-2, 1-4, 3-5, 4-6 or 1-6. If a group of mice received no Tween 80 or palmitoylguanosine on a given day, saline was administered by i.p. injection. Thus, there were 9 groups of 9 animals in all. On day 7 following CP administration all of the animals were bled and then sacrificed by cervical dislocation. Spleens were removed and weighed, and complete blood cell counts performed.
Twenty-four hours later and each day thereafter for a total of 6 days, mice were given a 0.4 ml i.p. injection of either physiological saline (controls), Tween 80 (0.5%), or one of three different doses of octanoylguanosine (0.5, 2.5, or 5 μmoles/mouse/day in 0.5% Tween 80). On day 7 following CP administration all 9 animals from each of the […] were bled and then sacrificed by cervical dislocation. Spleens were removed and weighed, and complete blood cell counts performed.
Twenty-four hours later and each day thereafter for a total of 6 days, mice were given a 0.4 ml i.p. injection of either physiological saline (controls), Tween 80 (0.5%), or octanoylguanosine (5.0 μmoles/mouse/day in 0.5% Tween 80). On day 7 following CP administration all 10 animals from each of the 3 groups were bled and then sacrificed by cervical dislocation. Spleens were removed, weighed, and fixed in 10% formalin for later histological examination. Complete blood cell counts were performed on the collected blood.
Twenty-four hours later and each day thereafter for a total of 6 days, mice were given a 0.4 ml i.p. injection of either physiological saline (controls), benzoylguanosine (2.5 μmoles/mouse/day in 0.2% Tween 80), or palmitoylguanosine (2.5 μmoles/mouse/day in 0.2% Tween 80). On days 7 and 10 following CP administration 8 animals from each of the 3 groups were bled and then were sacrificed by cervical dislocation. Spleens were removed and weighed, and complete blood cell counts performed.
Twenty four hours later and each day thereafter for a total of 4 or 6 days, mice were given a 0.4 ml i.p. injection of either physiological saline (controls), palmitoyldeoxyinosine (2.5 μmoles/mouse), or palmitoyl-xanthosine (2.5 μmoles/mouse). On days 5 and 7 following CP administration 6 of the 12 animals in each of the 3 groups were bled and then sacrificed by cervical dislocation. Spleens were removed and weighed, and complete blood cell counts performed.

Balb/C female mice [5] = experiment: as above; assay type: in vivo, mouse
[6] = tested on: bone marrow cells in culture; conditions: sub-optimal amounts of colony stimulating factors; cited from earlier work
[7] = Ex 38: day 7 after CP, guanosine 5, acyl derivatives 2.5 μmoles/mouse/day in 0.2% Tween 80 i.p. 6 days, Tween 80 0.2%
[8] = Ex 37: day 7 after CP 275 mg/kg i.p., 5 μmoles/mouse/day i.p. 6 days, vs saline

polyguanosine monophosphate
leukocyte formation [1]: failed to stimulate

Nc1nc2c(ncn2[C@@H]2O[C@@H]3COP(=O)(O)O[C@H]3[C@H]2O)c(=O)[nH]1 [cGMP, 3′,5′-cyclic guanosine monophosphate]
number of colonies formed [2]: increase

Nc1nc2c(ncn2[C@@H]2O[C@H](CO)[C@@H](O)[C@H]2O)c(=O)[nH]1 [guanosine]
induced maturation into functional neutrophils [3]: prevented | Neutrophils (Balb/C female mice [4]; vs saline): significantly more | peripheral total white blood cells (Balb/C female mice [4]; vs saline): significantly more | spleen weight (Balb/C female mice [4]; [7]): No significant difference | spleen weight (Balb/C female mice [5]; [8]): significantly heavier spleens

Nc1nc2nc[nH]c2c(=O)[nH]1 [guanine]
induced maturation into functional neutrophils [3]: prevented | Neutrophils (Balb/C female mice [4]; vs saline): significantly more | peripheral total white blood cells (Balb/C female mice [4]; vs saline): significantly more | spleen weight (Balb/C female mice [5]; [8]): significantly heavier spleens

polyadenosine monophosphate
leukocyte formation [1]: failed to stimulate

polyoxyethylene sorbitan mono-oleate [Tween 80]
concentration of maximum activity [6]: 10 ng/mL | spleen weight (Balb/C female mice [4]; [7]): No significant difference | lymphocyte counts (Balb/C female mice [4]; Ex 41: day 7 after CP, Tween 80 0.2% for any period): not affected | spleen weight (Balb/C female mice [4]; Ex 41: day 7 after CP, Tween 80 0.2% on days 4-6 or 1-6 (not days 1-4), vs saline): elevated | mean spleen weight (Balb/C female mice [4]; Ex 45: day 7 after CP, Tween 80 0.5%): some increase | spleen weight (Balb/C female mice [5]; Ex 46: day 7 after CP, Tween 80 0.5% alone vs saline): modest increase | neutrophil counts (Balb/C female mice [5]; Ex 58: day 7 after CP, 1.0% Tween alone i.p. 6 days, vs saline): significantly different from controls

Nc1nc2c(ncn2[C@@H]2O[C@H](COP(=O)(O)O)[C@@H](O)[C@H]2O)c(=O)[nH]1 [5′-guanosine monophosphate]
number of colonies formed [2]: inactive
